The record followed here is patent US10730850B2, “Pyridinylmethyl carbamimidoylcarbamate derivatives and their use as AOC3 inhibitors” (Boehringer Ingelheim International GmbH, priority 2016, dated 2020).

For one data set, the system named is hepatocytes. Briefly: Metabolic stability assay in hepatocyte suspension. In kind it is in vitro ADME. The note with it: 1 μM test compound. On the procedure:
The metabolic degradation of the test compound is assayed in a hepatocyte suspension. Hepatocytes (typically cryopreserved) are incubated in an appropriate buffer system (e.g. Dulbecco's modified eagle medium plus 3.5 μg glucagon/500 mL, 2.5 mg insulin/500 mL and 3.75 mg/500 mL hydrocortison) containing 5% species serum. Following a (typically) 30 min preincubation in an incubator (37° C., 10% CO2) 5 μl of test compound solution (80 μM; from 2 mM in DMSO stock solution diluted 1:25 with medium) are added into 395 μl hepatocyte suspension (cell density in the range 0.25-5 Mio cells/mL, typically 1 Mio cells/mL; final concentration of test compound 1 μM, final DMSO concentration 0.05%). The cells are incubated for six hours (incubator, orbital shaker) and samples (25 μl) are taken at 0, 0.5, 1, 2, 4 and 6 hours. Samples are transferred into acetonitrile and pelleted by centrifugation (5 min). The supernatant is transferred to a new 96-deepwell plate, evaporated under nitrogen and resuspended. Decline of parent compound is analyzed by HPLC-MS/MS
CLint is calculated as follows CL_INTRINSIC=Dose/AUC=(C0/CD)/(AUD+clast/k)×1000/60. C0: initial concentration in the incubation [μM], CD: cell density of vital cells [10e6 cells/mL], AUD: area under the data [μM×h], clast: concentration of last data point [μM], k: slope of the regression line for parent decline [h-1].
The calculated in vitro hepatic intrinsic clearance can be scaled up to the intrinsic in vivo hepatic Clearance and used to predict hepatic in vivo blood clearance (CL) by the use of a liver model (well stirred model). CL_INTRINSIC_INVIVO [ml/min/kg]=(CL_INTRINSIC [μL/min/10e6 cells]×hepatocellularity [10e6 cells/g liver]×liver factor [g/kg bodyweight])/1000 CL [ml/min/kg]=CL_INTRINSIC_INVIVO [ml/min/kg]×hepatic blood flow [ml/min/kg]/(CL_INTRINSIC_INVIVO [ml/min/kg]+hepatic blood flow [ml/min/kg])

Another data set addresses AOC3 (Homo sapiens (Human), UniProt Q16853). Briefly: MAO-Glo AOC3 assay (recombinant CHO cells overexpressing AOC3). The class given is biochemical. An excerpt: The MAO-Glo™ Assay (commercial available from PROMEGA, # V1402) provides a sensitive method for the measurement of monoamine oxidase (MAO) activity (Valley, M. P. et al., 2006, Anal. Biochem. 359: 238-246) from a variety of tissues, biofluids or recombinant expressed or purified enzymes. As substrate a derivate of the beetle luciferin ((4S)-4,5-dihydro-2-(6-hydroxybenzothiazolyl)-4-thiazole-carboxylic acid) is used, which is oxidized at a primary amine moiety. After a spontaneous elimination and a catalyzed esterase reaction, the turnover of the luciferine by the luciferase is recorded as a signal of AOC3 activity.
An aliquot of 3 μL of the compound dilution is added to a 384 well plate (Optiplate, PS, flat bottom, white, PERKIN ELMER, #6007290) with a final DMSO concentration of 6.6%. Recombinant CHO cells, overexpressing the human (1500 cells/well), mouse (1000 cells/well) or rat (500 cells/well) AOC3 enzyme are diluted in reaction buffer and added in a volume of 15 μL to the wells. After incubation for 20 minutes at 37° C., 2 μL of MAO substrate (dissolved in DMSO at 16 mM, adjusted to assay concentration in reaction buffer to a final assay concentration of 20 μM) is added and further incubated for 60 minutes at 37° C. The turnover of the substrate is determined by the addition of 20 μL of the detection-mix which was generated by the addition of reconstitution buffer with esterase (PROMEGA, # V1402) to the luciferine detection reagent (PROMEGA, # V1402). After an incubation period of 20 minutes, the luminescent signal is measured with Envision 2104 Multilabel Reader (PERKIN ELMER).
In the following table the activity expressed as IC50 (nM) of compounds according to the invention is presented wherein the IC50 values are determined in the MAO-Glo™ AOC3 assay as described hereinbefore. The term “Example” refers to the example numbers according to the following experimental section.

Where [1] appears, read: Table 3, comparative compounds of EP 2 695 881.
Where [2] appears, read: Table 2, comparative compounds of EP 2 695 881, read-out: IC50.

Each structure is given as a SMILES string. Read-outs that look alike come from different tables or passages of the source.

Chain of AOC3 (Q16853 whole entry): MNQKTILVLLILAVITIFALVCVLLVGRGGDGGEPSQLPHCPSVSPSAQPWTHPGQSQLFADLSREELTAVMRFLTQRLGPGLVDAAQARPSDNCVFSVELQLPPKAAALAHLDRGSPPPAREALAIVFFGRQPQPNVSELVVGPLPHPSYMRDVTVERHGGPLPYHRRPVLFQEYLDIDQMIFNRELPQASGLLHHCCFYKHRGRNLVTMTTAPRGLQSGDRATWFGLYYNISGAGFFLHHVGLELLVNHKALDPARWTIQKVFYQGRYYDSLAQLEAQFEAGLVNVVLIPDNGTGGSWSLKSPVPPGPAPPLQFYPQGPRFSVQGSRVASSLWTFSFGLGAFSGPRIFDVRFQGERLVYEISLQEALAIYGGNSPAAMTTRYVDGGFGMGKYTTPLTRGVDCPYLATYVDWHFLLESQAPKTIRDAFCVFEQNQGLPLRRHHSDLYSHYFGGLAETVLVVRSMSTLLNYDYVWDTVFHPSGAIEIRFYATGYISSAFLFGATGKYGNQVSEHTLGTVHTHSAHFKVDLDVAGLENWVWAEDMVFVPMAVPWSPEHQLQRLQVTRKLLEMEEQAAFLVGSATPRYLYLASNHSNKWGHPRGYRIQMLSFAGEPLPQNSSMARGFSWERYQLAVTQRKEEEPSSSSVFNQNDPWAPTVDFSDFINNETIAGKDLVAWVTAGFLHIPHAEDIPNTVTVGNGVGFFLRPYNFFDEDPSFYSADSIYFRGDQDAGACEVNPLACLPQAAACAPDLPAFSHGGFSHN

The term IC50 denotes the concentration that inhibits the measured activity by half. For the molecule `N#CC1(c2ccccc2)CCN(c2nccc(COC(=O)NC(=N)N)c2F)CC1` [Example 1.050], the QH with hepatocytes (Table 4) is listed as 10%. Besides, the 50% inhibitory concentration (IC50) at AOC3 (Table 1, read-out: AOC3 IC50) is 2 nM.
The like results for `N=C(N)NC(=O)OCc1ccnc(N2CCN(c3cncnc3)CC2)c1F` [Example 1.017] were, in that order, 6% and 3 nM.
Molecule `N=C(N)NC(=O)OCc1ccnc(N2CCN(c3ccc(C(F)(F)F)nn3)CC2)c1F` [Example 1.099] displayed a QH in the data set on hepatocytes (Table 4) of 9%. For the same molecule, on AOC3 (Table 1, read-out: AOC3 IC50), the IC50 worked out at 5 nM.
The matching figures for `N#Cc1cccc(N2CCN(c3nccc(COC(=O)NC(=N)N)c3F)CC2)c1` [Example 1.054]: 14% and 1 nM.
The like results for `N=C(N)NC(=O)OCc1ccnc(N2CCC(C3CCN(S(N)(=O)=O)CC3)CC2)c1F` [Example 1.104] were, in that order, 5% and 9 nM.
The matching figures for `N=C(N)NC(=O)OCc1ccnc(N2CCN(c3ccccc3)C(=O)C2)c1F` [Example 1.033]: 4% and 6 nM.
With `COc1ncc(N2CCN(c3nccc(COC(=O)NC(=N)N)n3)CC2)cn1` [Example 1.040], in the data set on hepatocytes (Table 4), the QH came to 7%. Moreover, the 50% inhibitory concentration (IC50) on AOC3 (Table 1, read-out: AOC3 IC50) came out at 7 nM.
The matching figures for `N=C(N)NC(=O)OCc1ccnc(N2CCN(c3ccc(Cl)cn3)CC2)c1F` [Example 1.078]: 14% and 9 nM.
`N=C(N)NC(=O)OCc1ccnc(N2CCN(c3ccncc3)CC2)c1F` [Example 1.011] registered a QH in the data set with hepatocytes (Table 4) of less than 4%. Further, the IC50 on AOC3 (Table 1, read-out: AOC3 IC50) was 3 nM.
The matching figures for `CNC(=O)c1ccc(N2CCN(c3nccc(COC(=O)NC(=N)N)c3F)CC2)nc1` [Example 1.091]: 7% and 7 nM.
The matching figures for `N#Cc1ccc(N2CCN(c3nccc(COC(=O)NC(=N)N)c3F)CC2)c(F)c1` [Example 1.083]: 11% and 4 nM.
The like results for `COC(=O)c1ccc(N2CCN(c3nccc(COC(=O)NC(=N)N)c3F)CC2)nc1` [Example 1.092] were, in that order, 92% and 9 nM.
As for `CS(=O)(=O)c1ccc(N2CCN(c3nccc(COC(=O)NC(=N)N)c3F)CC2)c(F)c1` [Example 1.106], the QH in the data set with hepatocytes (Table 4) is 8%. For the same molecule, on AOC3 (Table 1, read-out: AOC3 IC50), the IC50 was 6 nM.
With `N#Cc1ccc(N2CCN(c3nccc(COC(=O)NC(=N)N)c3F)CC2)cc1` [Example 1.055], in the data set with hepatocytes (Table 4), the QH is listed as 16%. Also, the IC50 on AOC3 (Table 1, read-out: AOC3 IC50) is 2 nM.
In the data set with hepatocytes (Table 4), `N=C(N)NC(=O)OCc1ccnc(N2CCC(C3CCOCC3)CC2)c1F` [Example 1.023] came in with a QH of 14%. In addition, the IC50 at AOC3 (Table 1, read-out: AOC3 IC50) came to 8 nM.
The matching figures for `N=C(N)NC(=O)OCc1ccnc(N2CCC(c3ccc(Cl)cc3)CC2)c1F` [Example 1.074]: 24% and 7 nM.
The matching figures for `COc1ccc(C2CCN(c3nccc(COC(=O)NC(=N)N)c3F)CC2)cc1` [Example 1.065]: 40% and 5 nM.
`N=C(N)NC(=O)OCc1cccc(N2CCN(c3ccc(C(N)=O)cc3)CC2)c1F` [reference compound]: in the data set with hepatocytes (setting [1]), the QH was 47%. Moreover, the concentration for half-maximal inhibition (IC50) on AOC3 (setting [2]) was 2.5 nM.
`CS(=O)(=O)c1ccc(N2CCN(c3nccc(COC(=O)NC(=N)N)c3F)CC2)nc1` [Example 1.103] displayed a QH in the data set with hepatocytes (Table 4) of less than 4%. The 50% inhibitory concentration (IC50) at AOC3 (Table 1, read-out: AOC3 IC50) was determined as 8 nM.
The like results for `N#Cc1ccc(N2CCN(c3nccc(COC(=O)NC(=N)N)c3F)CC2)nc1` [Example 1.056] were, in that order, 12% and 4 nM.
`COc1ccc(N2CCN(c3cccc(COC(=O)NC(=N)N)c3F)CC2)cc1` [57 (227), reference compound] displayed a QH with hepatocytes (setting [1]) of 20%. Also, the IC50 on AOC3 (setting [2]) was found to be 3.9 nM.
For `Cc1cc(N2CCN(c3nccc(COC(=O)NC(=N)N)c3F)CC2)ccn1` [Example 1.039], the QH in the data set on hepatocytes (Table 4) was less than 4%. In addition, the half-inhibitory concentration (IC50) on AOC3 (Table 1, read-out: AOC3 IC50) was found to be 2 nM.
The like results for `N=C(N)NC(=O)OCc1ccnc(N2CCN(c3ccc(C(N)=O)cn3)CC2)c1F` [Example 1.086] were, in that order, 11% and 7 nM.
